In data set [1] the target is 5-hydroxytryptamine receptor 2B (Homo sapiens, UniProt P41595). The experiment in a line: Selectivity interaction (Lead profiling screen (Eurofins-Panlabs)) EUB0000720a HTR2B. The following applies: at 10 µM.
Data set [2] concerns the target T1, Gamma-aminobutyric acid receptor subunit alpha-1 (Homo sapiens, UniProt P14867).
T1 sequence (P14867 whole entry): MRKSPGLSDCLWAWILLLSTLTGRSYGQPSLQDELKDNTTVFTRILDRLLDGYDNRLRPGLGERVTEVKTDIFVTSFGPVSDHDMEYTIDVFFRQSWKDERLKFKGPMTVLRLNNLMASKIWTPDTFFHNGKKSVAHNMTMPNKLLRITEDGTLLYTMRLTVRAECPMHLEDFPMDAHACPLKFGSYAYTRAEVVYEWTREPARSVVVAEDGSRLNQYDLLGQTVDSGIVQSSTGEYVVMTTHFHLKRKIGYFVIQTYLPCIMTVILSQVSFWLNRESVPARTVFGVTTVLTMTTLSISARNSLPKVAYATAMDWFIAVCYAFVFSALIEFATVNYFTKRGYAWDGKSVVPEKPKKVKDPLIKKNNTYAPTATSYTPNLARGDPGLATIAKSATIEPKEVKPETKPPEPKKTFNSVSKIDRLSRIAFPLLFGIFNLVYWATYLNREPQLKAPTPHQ
The experiment in a line: Selectivity interaction (GPCR panel (PDSP screen)) EUB0000720a GABRA1.

For data set [3], the target named is T1, Gamma-aminobutyric acid receptor subunit alpha-1. Briefly: Selectivity interaction (GPCR panel (PDSP screen)) EUB0000719a GABRA1.
In data set [4] the target is Ribosomal protein S6 kinase alpha-3 (Homo sapiens) (UniProt P51812). The experiment in a line: Selectivity interaction (KinomeScan (DiscoverX)) EUB0000303b RPS6KA3. As to conditions: at 1 µM.
Sequence of Ribosomal protein S6 kinase alpha-3 (Homo sapiens) (P51812 whole entry): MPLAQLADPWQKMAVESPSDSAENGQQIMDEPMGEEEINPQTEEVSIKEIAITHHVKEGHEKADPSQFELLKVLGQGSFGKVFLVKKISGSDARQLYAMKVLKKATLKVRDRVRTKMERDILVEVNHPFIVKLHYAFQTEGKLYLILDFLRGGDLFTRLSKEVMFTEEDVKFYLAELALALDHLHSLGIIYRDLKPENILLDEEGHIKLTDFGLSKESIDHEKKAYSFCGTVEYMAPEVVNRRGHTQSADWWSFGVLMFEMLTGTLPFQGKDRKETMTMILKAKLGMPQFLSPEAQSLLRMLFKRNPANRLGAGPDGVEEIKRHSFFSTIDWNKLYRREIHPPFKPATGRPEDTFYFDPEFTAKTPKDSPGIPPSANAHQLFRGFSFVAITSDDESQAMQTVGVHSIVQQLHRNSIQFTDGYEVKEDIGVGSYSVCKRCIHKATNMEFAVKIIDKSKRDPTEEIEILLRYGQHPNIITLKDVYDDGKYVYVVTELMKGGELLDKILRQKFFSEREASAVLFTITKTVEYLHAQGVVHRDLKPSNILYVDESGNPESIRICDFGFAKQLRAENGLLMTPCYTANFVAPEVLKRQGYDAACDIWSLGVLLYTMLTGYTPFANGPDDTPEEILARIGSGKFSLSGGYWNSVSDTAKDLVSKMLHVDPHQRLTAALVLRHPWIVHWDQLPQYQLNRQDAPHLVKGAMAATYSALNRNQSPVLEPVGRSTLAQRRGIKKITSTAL
Data set [5] deals with T2, Serine/threonine-protein kinase Sgk1 (Homo sapiens) (UniProt O00141).
T2 sequence (whole entry): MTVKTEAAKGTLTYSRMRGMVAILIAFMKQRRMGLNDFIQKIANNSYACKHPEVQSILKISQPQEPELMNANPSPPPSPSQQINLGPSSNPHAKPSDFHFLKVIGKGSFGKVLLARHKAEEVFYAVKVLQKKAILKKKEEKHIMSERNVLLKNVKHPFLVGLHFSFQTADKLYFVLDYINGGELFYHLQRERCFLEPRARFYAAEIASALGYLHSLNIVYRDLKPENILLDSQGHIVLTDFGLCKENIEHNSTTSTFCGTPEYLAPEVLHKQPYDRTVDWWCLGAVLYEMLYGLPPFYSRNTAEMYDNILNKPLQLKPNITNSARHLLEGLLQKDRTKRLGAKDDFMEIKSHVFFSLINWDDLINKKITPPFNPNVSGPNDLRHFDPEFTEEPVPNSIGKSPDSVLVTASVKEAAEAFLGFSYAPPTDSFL
Briefly: Selectivity interaction (KinomeScan (DiscoverX)) EUB0000303b SGK1. The following applies: at 1 µM.

Data set [6] concerns the target Sodium-dependent dopamine transporter (Homo sapiens, UniProt Q01959). Briefly: Selectivity interaction (GPCR panel (PDSP screen)) EUB0000303b SLC6A3.
Data set [7] addresses Serine/threonine-protein kinase WNK2 (Homo sapiens) (UniProt Q9Y3S1). The experiment in a line: Selectivity interaction (KinomeScan (DiscoverX)) EUB0000303b WNK2. The following applies: at 1 µM.
In data set [8] the target is T1, Gamma-aminobutyric acid receptor subunit alpha-1. The experiment in a line: Selectivity interaction (GPCR panel (PDSP screen)) EUB0000303b GABRA1.
The target in data set [9] is Voltage-gated inwardly rectifying potassium channel KCNH2 (Homo sapiens, UniProt Q12809). Briefly: Selectivity interaction (Ricerca panel (GPCRs, ion channels, transporters, enzymes, and proteases)) EUB0000303b KCNH2. The following applies: at 10 µM.
Sequence of Voltage-gated inwardly rectifying potassium channel KCNH2 (Q12809 whole entry): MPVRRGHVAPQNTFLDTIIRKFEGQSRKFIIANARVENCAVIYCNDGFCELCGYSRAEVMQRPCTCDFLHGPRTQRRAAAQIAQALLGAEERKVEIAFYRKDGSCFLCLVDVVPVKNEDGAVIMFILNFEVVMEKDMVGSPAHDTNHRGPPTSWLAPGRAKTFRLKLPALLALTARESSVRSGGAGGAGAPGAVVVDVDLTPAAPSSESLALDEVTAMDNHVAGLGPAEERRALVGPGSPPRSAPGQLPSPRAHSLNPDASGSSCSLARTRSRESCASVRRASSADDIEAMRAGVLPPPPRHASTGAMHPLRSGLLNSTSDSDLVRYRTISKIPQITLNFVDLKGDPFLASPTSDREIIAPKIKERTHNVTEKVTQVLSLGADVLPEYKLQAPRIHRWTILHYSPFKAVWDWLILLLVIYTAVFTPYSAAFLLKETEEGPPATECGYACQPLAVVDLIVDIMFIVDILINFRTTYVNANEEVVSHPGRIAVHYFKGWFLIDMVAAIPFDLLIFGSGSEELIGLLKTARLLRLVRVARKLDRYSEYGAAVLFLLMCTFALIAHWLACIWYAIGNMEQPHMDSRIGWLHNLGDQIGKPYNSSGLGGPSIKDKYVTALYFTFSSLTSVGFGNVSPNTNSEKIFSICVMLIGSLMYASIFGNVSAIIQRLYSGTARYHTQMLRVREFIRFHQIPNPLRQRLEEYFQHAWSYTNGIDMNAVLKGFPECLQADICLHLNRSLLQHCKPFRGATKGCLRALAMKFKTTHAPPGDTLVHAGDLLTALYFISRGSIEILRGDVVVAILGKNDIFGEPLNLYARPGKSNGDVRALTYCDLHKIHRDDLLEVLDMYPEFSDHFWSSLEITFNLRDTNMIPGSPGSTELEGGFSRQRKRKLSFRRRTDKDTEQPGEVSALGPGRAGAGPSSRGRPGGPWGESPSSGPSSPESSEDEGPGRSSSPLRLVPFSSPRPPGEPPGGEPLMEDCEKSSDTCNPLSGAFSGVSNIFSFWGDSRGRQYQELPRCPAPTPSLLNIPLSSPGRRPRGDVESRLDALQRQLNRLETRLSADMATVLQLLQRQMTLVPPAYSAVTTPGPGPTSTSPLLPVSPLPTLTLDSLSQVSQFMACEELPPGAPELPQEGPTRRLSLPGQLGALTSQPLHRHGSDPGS
The target of data set [10] is T3, Ephrin type-B receptor 6 (Homo sapiens) (UniProt O15197).
T3 sequence (whole entry): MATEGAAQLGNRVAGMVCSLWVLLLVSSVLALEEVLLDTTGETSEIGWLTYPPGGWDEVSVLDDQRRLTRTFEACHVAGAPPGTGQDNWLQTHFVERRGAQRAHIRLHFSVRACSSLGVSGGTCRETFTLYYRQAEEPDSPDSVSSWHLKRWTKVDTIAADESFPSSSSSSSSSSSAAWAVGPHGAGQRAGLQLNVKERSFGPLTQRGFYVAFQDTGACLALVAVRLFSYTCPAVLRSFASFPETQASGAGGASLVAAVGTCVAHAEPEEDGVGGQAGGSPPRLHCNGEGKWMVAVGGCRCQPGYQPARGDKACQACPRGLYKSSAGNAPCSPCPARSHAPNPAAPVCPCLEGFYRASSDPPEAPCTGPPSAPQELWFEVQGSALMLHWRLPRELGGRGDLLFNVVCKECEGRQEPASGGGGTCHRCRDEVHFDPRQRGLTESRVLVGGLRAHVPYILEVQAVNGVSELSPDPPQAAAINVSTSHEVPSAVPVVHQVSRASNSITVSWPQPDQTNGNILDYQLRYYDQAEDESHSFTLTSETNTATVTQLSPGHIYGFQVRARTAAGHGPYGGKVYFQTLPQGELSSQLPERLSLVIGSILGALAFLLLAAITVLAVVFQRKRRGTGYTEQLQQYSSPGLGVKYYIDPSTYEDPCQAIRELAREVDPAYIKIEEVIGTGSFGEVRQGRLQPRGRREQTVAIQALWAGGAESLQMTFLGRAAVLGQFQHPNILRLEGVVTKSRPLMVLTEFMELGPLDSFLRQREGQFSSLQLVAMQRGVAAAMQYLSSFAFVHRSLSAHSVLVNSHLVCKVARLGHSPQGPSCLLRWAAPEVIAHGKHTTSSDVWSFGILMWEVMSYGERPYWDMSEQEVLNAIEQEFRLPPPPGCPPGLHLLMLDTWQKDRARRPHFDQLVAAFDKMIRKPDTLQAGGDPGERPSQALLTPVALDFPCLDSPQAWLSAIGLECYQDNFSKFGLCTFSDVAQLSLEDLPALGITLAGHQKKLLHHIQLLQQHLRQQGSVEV
Briefly: Selectivity interaction (KinomeScan (DiscoverX)) EUB0000303b EPHB6. As to conditions: at 1 µM.

For data set [11], the target named is Beta-adrenergic receptor kinase 1 (Homo sapiens) (UniProt P25098). Briefly: Selectivity interaction (KinomeScan (DiscoverX)) EUB0000303b ADRBK1. As to conditions: at 1 µM.
Sequence of Beta-adrenergic receptor kinase 1 (Homo sapiens) (P25098 whole entry): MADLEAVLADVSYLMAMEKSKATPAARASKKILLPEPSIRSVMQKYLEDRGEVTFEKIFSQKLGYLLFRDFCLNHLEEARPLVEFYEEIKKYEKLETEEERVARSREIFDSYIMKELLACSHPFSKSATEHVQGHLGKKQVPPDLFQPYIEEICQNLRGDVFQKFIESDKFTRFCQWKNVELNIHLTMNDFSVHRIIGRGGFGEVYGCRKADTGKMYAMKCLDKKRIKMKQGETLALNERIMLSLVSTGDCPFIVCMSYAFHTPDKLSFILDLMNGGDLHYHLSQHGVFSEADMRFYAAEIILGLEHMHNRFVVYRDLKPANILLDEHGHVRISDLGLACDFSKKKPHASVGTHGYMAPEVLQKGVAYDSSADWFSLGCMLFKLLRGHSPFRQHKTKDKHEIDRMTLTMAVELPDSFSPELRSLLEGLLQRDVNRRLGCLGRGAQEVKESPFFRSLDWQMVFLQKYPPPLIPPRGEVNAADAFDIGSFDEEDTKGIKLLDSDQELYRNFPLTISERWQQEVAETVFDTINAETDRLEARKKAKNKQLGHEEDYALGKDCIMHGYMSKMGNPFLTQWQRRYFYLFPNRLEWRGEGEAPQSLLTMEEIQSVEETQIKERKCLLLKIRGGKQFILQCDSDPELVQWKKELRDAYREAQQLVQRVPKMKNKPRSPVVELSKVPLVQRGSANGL
Data set [12] has as its target T4, Serine/threonine-protein kinase LATS2 (Homo sapiens) (UniProt Q9NRM7).
T4 sequence (whole entry): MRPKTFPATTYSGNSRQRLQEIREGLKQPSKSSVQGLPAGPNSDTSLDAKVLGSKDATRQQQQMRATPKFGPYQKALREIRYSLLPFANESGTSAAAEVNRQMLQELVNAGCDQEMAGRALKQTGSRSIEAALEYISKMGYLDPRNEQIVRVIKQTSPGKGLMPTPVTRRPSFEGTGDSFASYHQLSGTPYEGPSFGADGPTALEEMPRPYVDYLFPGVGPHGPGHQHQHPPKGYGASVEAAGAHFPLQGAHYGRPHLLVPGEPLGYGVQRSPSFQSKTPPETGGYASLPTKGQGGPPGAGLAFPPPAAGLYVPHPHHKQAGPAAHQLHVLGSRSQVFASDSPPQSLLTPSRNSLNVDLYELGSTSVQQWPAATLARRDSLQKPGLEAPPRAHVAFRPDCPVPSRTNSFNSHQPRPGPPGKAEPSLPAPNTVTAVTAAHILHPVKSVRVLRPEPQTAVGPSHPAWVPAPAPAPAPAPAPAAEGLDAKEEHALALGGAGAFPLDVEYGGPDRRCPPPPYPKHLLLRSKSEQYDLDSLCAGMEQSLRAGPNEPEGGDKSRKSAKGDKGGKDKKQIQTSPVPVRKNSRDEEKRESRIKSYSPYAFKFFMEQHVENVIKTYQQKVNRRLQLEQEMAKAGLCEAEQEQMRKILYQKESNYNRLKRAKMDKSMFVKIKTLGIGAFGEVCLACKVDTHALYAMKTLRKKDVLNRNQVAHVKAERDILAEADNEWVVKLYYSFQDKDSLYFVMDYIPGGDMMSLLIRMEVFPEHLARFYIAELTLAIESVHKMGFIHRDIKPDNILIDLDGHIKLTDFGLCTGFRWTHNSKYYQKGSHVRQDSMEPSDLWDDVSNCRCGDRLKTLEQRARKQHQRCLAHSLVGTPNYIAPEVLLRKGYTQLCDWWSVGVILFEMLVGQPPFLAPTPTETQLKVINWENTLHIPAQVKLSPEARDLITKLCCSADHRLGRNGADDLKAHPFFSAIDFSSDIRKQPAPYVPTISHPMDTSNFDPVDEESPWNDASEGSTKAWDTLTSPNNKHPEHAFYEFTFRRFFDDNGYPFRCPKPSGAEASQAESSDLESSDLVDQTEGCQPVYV
The experiment in a line: Selectivity interaction (KinomeScan (DiscoverX)) EUB0000303b LATS2. The following applies: at 1 µM.

Data set [13] addresses Glutamate receptor ionotropic, NMDA 1 (Homo sapiens, UniProt Q05586). The experiment in a line: Selectivity interaction (PRESTO-Tango GPCR-ome screening) EUB0000539a GRIN1.
The target of data set [14] is T5, Sodium/nucleoside cotransporter 2 (Homo sapiens, UniProt O43868).
T5 sequence (O43868 whole entry): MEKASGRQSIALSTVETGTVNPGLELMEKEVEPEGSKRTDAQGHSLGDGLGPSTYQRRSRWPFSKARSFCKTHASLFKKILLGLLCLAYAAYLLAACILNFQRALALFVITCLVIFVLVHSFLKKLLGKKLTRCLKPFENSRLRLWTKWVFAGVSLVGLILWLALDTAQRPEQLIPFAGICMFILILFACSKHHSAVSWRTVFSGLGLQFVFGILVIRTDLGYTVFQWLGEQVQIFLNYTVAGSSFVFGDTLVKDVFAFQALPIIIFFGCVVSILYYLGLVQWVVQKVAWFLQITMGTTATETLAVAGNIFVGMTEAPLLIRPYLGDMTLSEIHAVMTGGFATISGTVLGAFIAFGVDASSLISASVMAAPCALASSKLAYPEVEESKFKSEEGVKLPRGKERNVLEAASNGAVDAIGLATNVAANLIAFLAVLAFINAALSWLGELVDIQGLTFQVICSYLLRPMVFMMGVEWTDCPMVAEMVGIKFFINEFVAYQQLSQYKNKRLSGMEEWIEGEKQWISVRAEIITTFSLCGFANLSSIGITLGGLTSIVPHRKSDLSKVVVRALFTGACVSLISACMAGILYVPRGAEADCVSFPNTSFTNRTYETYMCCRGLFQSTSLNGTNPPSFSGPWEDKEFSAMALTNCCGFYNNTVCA
Briefly: Selectivity interaction (Enzyme panel (Eurofins-Panlabs radioligand binding assays)) EUB0000751a SLC28A2.

The target of data set [15] is T5, Sodium/nucleoside cotransporter 2. The experiment in a line: Selectivity interaction (Enzyme panel (Eurofins-Panlabs enzyme assay)) EUB0000751a SLC28A2.
Data set [16] deals with cGMP-inhibited 3',5'-cyclic phosphodiesterase 3A (Homo sapiens, UniProt Q14432). The experiment in a line: Selectivity interaction (PDE panel (enzymatic activity assay)) EUB0000751a PDE3A.
Sequence of cGMP-inhibited 3',5'-cyclic phosphodiesterase 3A (Q14432 whole entry): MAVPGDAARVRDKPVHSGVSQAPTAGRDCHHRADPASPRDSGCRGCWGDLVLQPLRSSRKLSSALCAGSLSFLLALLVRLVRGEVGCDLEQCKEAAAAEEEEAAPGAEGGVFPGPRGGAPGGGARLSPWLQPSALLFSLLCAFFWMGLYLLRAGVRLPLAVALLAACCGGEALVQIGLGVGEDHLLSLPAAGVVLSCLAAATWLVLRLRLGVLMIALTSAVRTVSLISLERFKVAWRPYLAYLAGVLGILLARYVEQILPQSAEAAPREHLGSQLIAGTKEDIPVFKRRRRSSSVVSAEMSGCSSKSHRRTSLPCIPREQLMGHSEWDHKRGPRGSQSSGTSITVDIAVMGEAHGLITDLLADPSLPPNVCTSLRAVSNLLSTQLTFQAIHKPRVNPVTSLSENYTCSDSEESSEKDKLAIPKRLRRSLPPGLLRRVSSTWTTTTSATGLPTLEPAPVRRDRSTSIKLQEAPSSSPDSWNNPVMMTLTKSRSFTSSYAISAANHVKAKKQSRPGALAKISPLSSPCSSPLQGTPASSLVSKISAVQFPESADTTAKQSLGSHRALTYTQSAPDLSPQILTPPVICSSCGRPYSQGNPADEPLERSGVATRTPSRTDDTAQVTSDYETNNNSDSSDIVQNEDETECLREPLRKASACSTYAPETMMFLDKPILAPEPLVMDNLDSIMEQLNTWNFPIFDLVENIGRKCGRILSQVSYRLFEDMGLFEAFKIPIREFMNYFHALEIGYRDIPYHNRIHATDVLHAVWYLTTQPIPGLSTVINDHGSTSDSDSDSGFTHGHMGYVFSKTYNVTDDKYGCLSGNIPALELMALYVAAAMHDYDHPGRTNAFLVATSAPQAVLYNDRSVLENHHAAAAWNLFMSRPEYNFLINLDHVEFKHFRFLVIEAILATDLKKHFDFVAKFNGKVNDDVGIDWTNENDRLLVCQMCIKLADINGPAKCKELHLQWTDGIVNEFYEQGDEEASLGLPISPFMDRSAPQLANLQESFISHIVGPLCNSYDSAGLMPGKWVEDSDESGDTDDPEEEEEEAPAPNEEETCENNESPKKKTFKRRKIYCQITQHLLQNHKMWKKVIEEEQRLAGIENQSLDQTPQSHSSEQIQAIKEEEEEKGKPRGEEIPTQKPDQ
The target in data set [17] is High affinity 3',5'-cyclic-AMP phosphodiesterase 7A (Homo sapiens, UniProt Q13946). The experiment in a line: Selectivity interaction (PDE panel (enzymatic activity assay)) EUB0000751a PDE7A.
Sequence of High affinity 3',5'-cyclic-AMP phosphodiesterase 7A (Q13946 whole entry): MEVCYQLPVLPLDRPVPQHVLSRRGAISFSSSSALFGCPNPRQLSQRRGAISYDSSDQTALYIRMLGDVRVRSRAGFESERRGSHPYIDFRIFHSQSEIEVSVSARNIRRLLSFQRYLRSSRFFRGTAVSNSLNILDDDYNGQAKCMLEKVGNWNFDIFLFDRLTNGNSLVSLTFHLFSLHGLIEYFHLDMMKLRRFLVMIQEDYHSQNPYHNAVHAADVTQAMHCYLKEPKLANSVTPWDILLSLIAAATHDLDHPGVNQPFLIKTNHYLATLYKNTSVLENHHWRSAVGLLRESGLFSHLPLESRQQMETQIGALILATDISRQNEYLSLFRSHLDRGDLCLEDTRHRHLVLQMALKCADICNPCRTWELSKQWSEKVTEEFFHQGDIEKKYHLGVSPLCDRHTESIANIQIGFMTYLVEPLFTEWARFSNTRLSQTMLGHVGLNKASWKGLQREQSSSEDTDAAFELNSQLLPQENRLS
The target of data set [18] is RAC-gamma serine/threonine-protein kinase (Homo sapiens) (UniProt Q9Y243). Briefly: Selectivity interaction (KinomeScan (DiscoverX)) EUB0000751a AKT3. As to conditions: at 100 nM.

What is called Ki is the dissociation constant of the complex between target and ligand, obtained from inhibition or displacement. The IC50 is the point on the concentration scale where inhibition reaches its midpoint. Read a low IC50 as inhibition by little substance.

Where only a bound is given, the exact number is not on record here.

Sequence of 5-hydroxytryptamine receptor 2B (P41595 whole entry): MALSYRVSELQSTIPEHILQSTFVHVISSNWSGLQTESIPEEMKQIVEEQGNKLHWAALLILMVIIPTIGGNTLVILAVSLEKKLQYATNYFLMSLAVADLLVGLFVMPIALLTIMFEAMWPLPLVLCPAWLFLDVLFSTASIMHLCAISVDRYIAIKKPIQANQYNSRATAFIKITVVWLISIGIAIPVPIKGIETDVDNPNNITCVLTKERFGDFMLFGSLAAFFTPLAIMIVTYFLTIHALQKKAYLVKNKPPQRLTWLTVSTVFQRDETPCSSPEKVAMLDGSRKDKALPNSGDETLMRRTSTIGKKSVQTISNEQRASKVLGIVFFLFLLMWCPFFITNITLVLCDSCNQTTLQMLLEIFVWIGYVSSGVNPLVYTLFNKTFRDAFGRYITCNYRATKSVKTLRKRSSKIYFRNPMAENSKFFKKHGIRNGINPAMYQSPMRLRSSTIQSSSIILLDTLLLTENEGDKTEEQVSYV

In the case of `CN1C(=O)[C@@H](N2CCc3c(nn(Cc4ccccc4)c3Br)C2=O)COc2ccccc21` [TP-030-2], the % of control in data set [1] was 63%. Further, the Ki in data set [2] is 0.347 µM.
Regarding `CN1C(=O)[C@@H](N2CCc3cn(Cc4ccccc4)nc3C2=O)COc2ccccc21` [TP-030-1], in data set [3], the Ki turned out to be 0.375 µM.
Take `Cc1nc(N2CC[C@H](O)C2)ncc1-c1cc(C(F)(F)F)cc2[nH]ncc12`: the % of control in data set [4] is 48%; in [5], 49%; in data set [7] it was 41%; in data set [10], 36%; in data set [11], 42%; in [12] it was 26%. The Ki was determined as 1.68 µM in data set [6] and 4.54 µM in data set [8]. Also, the “% of inhibition” value in data set [9] came out at 1%.
On to `Cc1ccc2nc(CNCCCOc3ccccc3)cc(O)c2c1` [UCSF924], for which the Ki in data set [13] came out at 1 µM.
As for `COCCOc1nc(-c2ccc(Cl)nc2)nc2c1CN(C(=O)c1ncn3ccccc13)CC2` [THPP-1], the IC50 in [14] and in [15] was 1.61 µM each time. Also, the results for the Ki in [16] and in data set [17] were greater than 3300 µM and greater than 11.2 µM, respectively. Moreover, the % of control in data set [18] was determined as 47%.

For the origin of these results see ChEMBL document CHEMBL5212743, “Selectivity Literature for EUbOPEN Chemogenomics Library wave 3” (2023).
